Experimental data as given in PMC12741935 (Alzheimer's & Dementia, 2025).
Read-outs that look alike come from different tables or passages of the source.

How the values were obtained:
[1] = Plasma and brain NVS-PAK1-1 concentrations in 5xFAD mice; format: in vivo; details: for concentration at 4 h: mouse, po, 100 mg/kg, 4 h after final dose
Method: Serial blood was collected from n = 3 per treatment group at 0.5, 1, 2, and 4 hours post dose; with terminal blood and brain collected at 4 hours post dose. A staggered cohort of n = 3 per treatment group were assigned to serial blood collections at 0.5, 1, 2, and 8 hours post dose with terminal blood and brain collected at 4 and 24 hours post dose. Informed by exposure data from the initial PK/PD study, a subsequent chronic PK/PD study was designed to evaluate twice daily treatment of 100 mg/kg (PO) in female and male 5xFAD mice compared to age‐ and sex‐matched vehicle‐treated 5xFAD and vehicle‐treated WT littermate controls (Table S2 in supporting information). Terminal blood and brain was collected at 4 hours after the final dose. […] All in vivo target engagement and PK/PD studies were conducted under blinded conditions for age, genotype, and treatment, and the blind was maintained until after analyses were conducted.
Drug concentrations were prepared immediately before dosing each day. The dose volume was delivered at 10 mL/kg based on each subject's daily weight collected just prior to the morning dose and administered via PO. For the chronic PD study, twice daily dosing (BID) was conducted between 7:00 and 9:00 am each morning and 3:00 to 5:00 pm each evening with the same day's formulation stored at 4°C between dosing intervals.
For serial blood sampling, 50 µL of blood was collected via the tail tip route into heparin‐coated glass capillary tubes (Drummond scientific # 1‐000‐7500‐C/5) in non‐anesthetized mice. For all terminal timepoints, tissue collection was conducted at 4 or 24 hours post dose for acute studies (Tables S1–S2) and 4 hours after the final dose administrated for chronic studies. Mice were anesthetized with isoflurane to the surgical plane of anesthesia. After decapitation, trunk blood was collected into heparin‐coated tubes for terminal PK analysis with the remaining trunk blood decanted into EDTA‐coated tubes for PD analysis. Blood was kept on ice until centrifugation (typically 20–60 minutes post collection), then centrifuged at 19745 g for 10 minutes at 4°C for PK samples and 20 minutes for PD samples (e.g., plasma Aβ40, Aβ42, neurofilament light chain [NfL]), followed by storage at −80°C until analysis. The brain was quickly removed from the skull, briefly rinsed in cold PBS, and divided sagittally at the midline into left and right hemispheres. The left hemisphere without cerebellum was quickly chopped and mixed into three equally aliquoted mixed parts then placed into three cold cryotubes. Cryotubes were immediately snap frozen on dry ice and stored at −80°C until analysis. The right hemisphere was maintained intact and immediately placed on dry ice and stored at −80°C until shipped to Stanford University for Golgi staining and morphological analyses.
For plasma samples, three volumes of acetonitrile containing internal standard was added to one volume of plasma, and centrifuged at 3000 g for 10 minute; then, the supernatant was removed and analyzed by LC‐MS/MS. Calibration standards and quality controls were prepared from a 1 mg/mL stock solution and subsequently a series of working solutions in methanol:water (1:1, v/v) that are spiked into blank plasma to yield a series of calibration standard samples in the range of 1 ng/mL to 10 µg/mL and QC samples at three concentration levels (low, middle, and high). All plasma samples were treated identically to the calibration standards and QC samples. For analysis of brain, one third of the left mixed‐chopped hemisphere was homogenized in three volumes of PBS buffer (pH 7.4; v/w = 3/1). Subsequently, three volumes of acetonitrile‐containing internal standard was added to one volume of each tissue homogenate, and the mixture was vortexed, centrifuged at 3000 g for 10 minutes, and supernatants were used for LC‐MS/MS.

[2] = test system: 14 DIV mouse hippocampal neurons; experiment: oTau-induced spine loss: drebrin-positive spine density in cultured hippocampal neurons; format: cell-based; details: oTau 50 nM + inhibitor 24 h vs oTau alone; NVS-PAK1-1 10 nM, NVS-PAK1-C 10 nM, AZ13705339 1 nM, G5555 5 nM
Method: For in vitro study, all animal procedures were conducted in accordance with the National Institutes of Health Guide for the Care and Use of Laboratory Animals using protocols approved by the institutional animal care and use committee at Stanford University. Timed pregnant C57BL/6 mice (Strain code: 027) were purchased from Charles River Laboratories and delivered on embryonic day 15 (E15), after which E16 embryos were used for primary hippocampal cultures. Primary embryonic mouse hippocampal neuron cultures were plated on poly‐D‐lysine‐coated (10 µg/mL) glass cover slips at 40,000 to 50,000 cells per well in 12‐well plates (Corning Life Sciences). Cells were seeded in plating medium DMEM/F12 supplemented with 10% fetal bovine serum and 1 × penicillin/streptomycin (PS) for 2 hours. Medium was then changed to B‐27 Plus Neuronal Culture System (Invitrogen) supplemented with PS, and 2 mM glutamine.
Immunofluorescence was performed as described previously.[24] Briefly, cultured hippocampal neurons were fixed in 4% formaldehyde for 20 minutes, permeabilized for 6 minutes in 80% ice‐cold methanol, and incubated with primary antibodies at 4°C overnight. Primary antibodies used were rabbit polyclonal MAP2 antibody for labeling dendrites (1:1000, #8707, Cell Signaling) and mouse monoclonal drebrin antibody for labeling dendritic spines (1:300; Cat#ADI‐NBA‐110, Enzo). Secondary antibodies consisted of donkey antirabbit or antimouse conjugated with either FITC or Cy3 (1:400; Jackson ImmunoResearch Laboratories, Inc.).
The cultured hippocampal neurons were imaged using an oil‐based 63x objective on a Leica Stellaris 5 confocal microscope. The cell nucleus was stained with DAPI and imaged at a wavelength of 405 nm (blue channel), the dendrites stained by MAP2 were imaged at 488 nm wavelength (green channel), and the drebrin‐stained spines were imaged at a wavelength of 561 nm (red channel). […] The number of steps for every z‐stack picture of a neuron were determined by the size of the neuron in the z‐plane, to ensure that the entirety of a neuron is captured in the picture. […]
For quantification of drebrin‐positive spines in vitro, the images were analyzed using Imaris 9.3 software. […] After manually tracing the dendrites, the spines along the dendrites were assessed using the automatic “spine detection” function in Imaris. […] The spine density (number of spines/dendrite length) was then calculated for each neuron. All image acquisition and quantification were performed in a blind manner. For in vitro quantification of dendrite degeneration, Neurolucida (MBF Biosciences) in the manual mode was used to measure the total dendritic length, numbers of dendrites, and dendritic complexity for each neuron.

## CC(C)NC(=O)N1CC[C@H](NC2=Nc3cc(F)ccc3N(CC(F)F)c3ccc(Cl)cc32)C1 [NVS‐PAK1‐1, (S)‐3‐([2‐chloro‐5‐(2,2‐difluoroethyl)‐8‐fluoro‐5H‐dibenzo[b,e][1,4]diazepin‐11‐yl]amino)‐N‐isopropylpyrrolidine‐1‐carboxamide]
[1]; female, 5xFAD, brain, aged 5xFAD females, 100 mg/kg BID PO 31 days, read-out: brain concentration
  concentration at 4 h: 58.3 ± 26.1 ng/g
[1]; female, 5xFAD, brain, young 5xFAD females, 100 mg/kg BID PO 12 weeks, read-out: mean brain concentration
  concentration at 4 h: 44.9 ± 14.1 ng/g
[1]; female, 5xFAD, plasma, aged 5xFAD females, 100 mg/kg BID PO 31 days, read-out: plasma concentration
  concentration at 4 h: 354 ± 138 ng/mL
[1]; female, 5xFAD, plasma, young 5xFAD females, 100 mg/kg BID PO 12 weeks, read-out: average plasma concentration
  concentration at 4 h: 324 ± 104 ng/mL
[1]; male, 5xFAD, brain, aged 5xFAD males, 100 mg/kg BID PO 31 days, read-out: brain concentration
  concentration at 4 h: 49.1 ± 17.6 ng/g
[1]; male, 5xFAD, brain, young 5xFAD males, 100 mg/kg BID PO 12 weeks, read-out: mean brain concentration
  concentration at 4 h: 98.5 ± 34.4 ng/g
[1]; male, 5xFAD, plasma, aged 5xFAD males, 100 mg/kg BID PO 31 days, read-out: plasma concentration
  concentration at 4 h: 140 ± 27.9 ng/mL
[1]; male, 5xFAD, plasma, young 5xFAD males, 100 mg/kg BID PO 12 weeks, read-out: average plasma concentration
  concentration at 4 h: 309 ± 104 ng/mL
[1]; single PO dose 100 mg/kg, 24 hours post administration, 5xFAD
  levels in brain or plasma: lack of detectable levels
[1]; single PO dose 10 or 50 mg/kg, 24 hours post dose, aged 5xFAD
  brain concentration: BLOQ
[2]
  drebrin-stained spine density (spine counts per µm of dendritic length): significantly higher spine counts
